Test results as given in US20230139171A1 (SITA Information Networking Computing UK Limited, priority 2019, published 2023).

Tests used:
Type in all cases: cell-based
human TLR7 = target: T1, human TLR7 (Homo sapiens, UniProt Q9NYK1); experiment: TLR7 inhibition reporter assay (HEK-Blue cells, SEAP reporter, gardiquimod stimulation); conditions: HEK-Blue cells overexpressing human TLR7, SEAP reporter, gardiquimod 7.5 μM; read-out: TLR7 IC50
T1 construct: host or cells: HEK-Blue cells
T1 sequence (Q9NYK1 27-1049): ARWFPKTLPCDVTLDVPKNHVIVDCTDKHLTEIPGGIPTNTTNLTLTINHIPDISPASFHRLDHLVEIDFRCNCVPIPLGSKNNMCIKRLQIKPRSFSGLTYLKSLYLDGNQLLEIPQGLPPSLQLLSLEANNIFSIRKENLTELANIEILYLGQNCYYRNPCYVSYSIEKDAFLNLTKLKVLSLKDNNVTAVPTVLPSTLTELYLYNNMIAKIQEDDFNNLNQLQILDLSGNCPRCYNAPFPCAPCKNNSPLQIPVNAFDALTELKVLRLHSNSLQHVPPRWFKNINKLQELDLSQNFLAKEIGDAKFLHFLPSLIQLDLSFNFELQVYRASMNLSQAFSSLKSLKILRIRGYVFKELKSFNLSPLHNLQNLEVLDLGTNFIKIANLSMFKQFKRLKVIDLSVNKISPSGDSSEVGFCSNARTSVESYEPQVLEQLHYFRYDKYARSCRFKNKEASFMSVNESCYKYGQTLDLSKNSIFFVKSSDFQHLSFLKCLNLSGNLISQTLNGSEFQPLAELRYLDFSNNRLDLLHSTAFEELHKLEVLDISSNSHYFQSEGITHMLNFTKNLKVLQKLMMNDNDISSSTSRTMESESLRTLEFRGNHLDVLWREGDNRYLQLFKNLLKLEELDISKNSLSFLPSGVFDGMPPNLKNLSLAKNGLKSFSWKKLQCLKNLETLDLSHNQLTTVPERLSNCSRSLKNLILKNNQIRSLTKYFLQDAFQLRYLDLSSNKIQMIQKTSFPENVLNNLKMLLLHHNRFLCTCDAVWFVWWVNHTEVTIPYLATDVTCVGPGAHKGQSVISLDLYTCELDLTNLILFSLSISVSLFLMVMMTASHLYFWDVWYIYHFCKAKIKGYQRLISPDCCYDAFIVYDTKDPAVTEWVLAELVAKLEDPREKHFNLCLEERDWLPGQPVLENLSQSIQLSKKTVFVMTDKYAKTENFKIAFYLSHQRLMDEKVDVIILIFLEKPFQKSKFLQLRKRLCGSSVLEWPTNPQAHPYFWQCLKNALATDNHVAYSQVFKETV
In short: (§1)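 Screening used HEK-Blue cells overexpressing one human TLR (7, 8 or 9) and an IFN-β minimal promoter–NF-κB/AP-1 SEAP construct. Stimulation lasted 22 h at 37 °C with receptor-specific agonist: gardiquimod, R848 or ODN2006 at 7.5 μM, 15.9 μM and 5 nM.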

human TLR8 = target: T2, human TLR8 (Homo sapiens, UniProt Q9NR97); experiment: TLR8 inhibition reporter assay (HEK-Blue cells, SEAP reporter, R848 stimulation); conditions: HEK-Blue cells overexpressing human TLR8, SEAP reporter, R848 15.9 μM; read-out: TLR8 IC50
T2 construct: host or cells: HEK-Blue cells
T2 sequence (Q9NR97 27-1041): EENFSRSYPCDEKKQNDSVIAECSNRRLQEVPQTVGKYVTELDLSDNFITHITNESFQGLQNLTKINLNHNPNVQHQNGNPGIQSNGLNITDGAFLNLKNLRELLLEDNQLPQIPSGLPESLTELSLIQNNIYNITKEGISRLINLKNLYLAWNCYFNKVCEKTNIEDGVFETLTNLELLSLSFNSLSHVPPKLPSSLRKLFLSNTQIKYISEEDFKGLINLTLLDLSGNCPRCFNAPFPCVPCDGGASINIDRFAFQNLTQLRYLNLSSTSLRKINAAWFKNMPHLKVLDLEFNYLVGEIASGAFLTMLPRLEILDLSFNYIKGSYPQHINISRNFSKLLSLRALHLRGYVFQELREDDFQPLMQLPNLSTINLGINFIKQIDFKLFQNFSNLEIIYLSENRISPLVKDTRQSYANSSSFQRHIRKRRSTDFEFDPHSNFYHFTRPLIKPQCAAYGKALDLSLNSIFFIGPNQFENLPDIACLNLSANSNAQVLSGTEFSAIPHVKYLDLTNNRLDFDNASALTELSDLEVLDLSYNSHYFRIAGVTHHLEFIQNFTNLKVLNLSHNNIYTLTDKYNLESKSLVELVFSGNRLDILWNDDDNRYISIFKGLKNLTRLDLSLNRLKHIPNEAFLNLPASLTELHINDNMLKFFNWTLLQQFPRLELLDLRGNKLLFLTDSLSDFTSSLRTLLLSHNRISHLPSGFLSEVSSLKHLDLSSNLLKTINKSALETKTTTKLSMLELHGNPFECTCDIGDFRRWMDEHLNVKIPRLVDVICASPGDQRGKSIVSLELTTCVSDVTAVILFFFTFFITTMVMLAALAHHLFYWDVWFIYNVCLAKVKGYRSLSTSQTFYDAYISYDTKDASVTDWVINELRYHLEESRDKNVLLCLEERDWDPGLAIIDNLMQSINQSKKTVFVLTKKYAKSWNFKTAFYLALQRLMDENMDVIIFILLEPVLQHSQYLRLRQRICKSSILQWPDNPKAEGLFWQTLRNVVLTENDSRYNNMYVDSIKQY
In short: as §1

human TLR9 = target: T3, human TLR9 (Homo sapiens, UniProt Q9NR96); experiment: TLR9 inhibition reporter assay (HEK-Blue cells, SEAP reporter, ODN2006 stimulation); conditions: HEK-Blue cells overexpressing human TLR9, SEAP reporter, ODN2006 5 nM
T3 construct: host or cells: HEK-Blue cells
T3 sequence (Q9NR96 26-1032): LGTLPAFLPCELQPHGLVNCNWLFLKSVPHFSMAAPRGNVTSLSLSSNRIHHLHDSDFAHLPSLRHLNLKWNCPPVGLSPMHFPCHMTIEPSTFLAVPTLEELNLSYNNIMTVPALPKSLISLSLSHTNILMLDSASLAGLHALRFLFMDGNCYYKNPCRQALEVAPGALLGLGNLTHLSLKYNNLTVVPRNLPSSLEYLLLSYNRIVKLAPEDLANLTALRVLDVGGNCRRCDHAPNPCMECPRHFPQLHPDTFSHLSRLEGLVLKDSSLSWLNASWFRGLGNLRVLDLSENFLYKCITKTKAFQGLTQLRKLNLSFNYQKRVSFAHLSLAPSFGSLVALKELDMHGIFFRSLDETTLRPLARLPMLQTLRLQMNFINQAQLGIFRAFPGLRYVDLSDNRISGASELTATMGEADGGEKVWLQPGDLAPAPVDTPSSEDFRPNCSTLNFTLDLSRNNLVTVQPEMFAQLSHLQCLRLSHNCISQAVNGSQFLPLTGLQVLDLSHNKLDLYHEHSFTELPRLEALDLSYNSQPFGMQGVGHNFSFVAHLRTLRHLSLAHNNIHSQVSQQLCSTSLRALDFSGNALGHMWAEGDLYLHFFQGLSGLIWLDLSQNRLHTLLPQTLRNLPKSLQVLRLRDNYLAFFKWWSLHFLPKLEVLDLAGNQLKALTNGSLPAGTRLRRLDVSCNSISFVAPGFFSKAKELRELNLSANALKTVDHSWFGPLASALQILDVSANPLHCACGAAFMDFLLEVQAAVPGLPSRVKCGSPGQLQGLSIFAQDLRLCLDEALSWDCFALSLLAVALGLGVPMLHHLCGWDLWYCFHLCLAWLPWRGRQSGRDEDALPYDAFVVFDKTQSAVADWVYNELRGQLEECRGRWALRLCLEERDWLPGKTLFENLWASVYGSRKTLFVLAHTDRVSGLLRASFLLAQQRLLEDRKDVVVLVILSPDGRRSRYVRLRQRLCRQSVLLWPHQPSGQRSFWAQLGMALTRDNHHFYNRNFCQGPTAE
In short: as §1

IC50 (human TLR7) [nM] | IC50 (human TLR8) [nM] | IC50 (human TLR9) [nM] | SMILES
8.06 | 3.19 | > 50000 | Cc1c(-c2[nH]c3sc(C4CCC(NC5COC5)CC4)nc3c2C(C)C)cn(C)c(=O)c1C (single isomer, unassigned) [Example 241, 5-(6-isopropyl-2-(4-(oxetan-3-ylamino)cyclohexyl)-4H-pyrrolo[3,2-d]thiazol-5-yl)-1,3,4-trimethylpyridin-2(1H)-one]
19.9 | 3.86 | 36600 | Cc1c(-c2[nH]c3sc(N4C[C@@H](C)N(CC(C)(C)O)C[C@@H]4C)nc3c2C(C)C)cn2ncnc2c1C [Example 339, 1-((2R,5S)-4-(5-(7,8-dimethyl-[1,2,4]triazolo[1,5-a]pyridin-6-yl)-6-isopropyl-4H-pyrrolo[3,2-d]thiazol-2-yl)-2,5-dimethylpiperazin-1-yl)-2-methylpropan-2-ol]
1.23 | 0.9 | 4850 | Cc1cc(-c2[nH]c3sc(C4CCN(C5CCOCC5)CC4)nc3c2C(C)C)cn2ncnc12 [Example 22, 6-isopropyl-5-(8-methyl-[1,2,4]triazolo[1,5-a]pyridin-6-yl)-2-(1-(tetrahydro-2H-pyran-4-yl)piperidin-4-yl)-4H-pyrrolo[3,2-d]thiazole]
2.25 | 0.27 | 8910 | Cc1c(-c2[nH]c3sc(N4CCC(NC(C)C)CC4)nc3c2C(C)C)cn2ncnc2c1C [Example 297, 1-(5-(7,8-dimethyl-[1,2,4]triazolo[1,5-a]pyridin-6-yl)-6-isopropyl-4H-pyrrolo[3,2-d]thiazol-2-yl)-N-isopropylpiperidin-4-amine]
19.9 | 8.4 | 35600 | CC(=O)N1CCN(C(=O)c2nc3c(C(C)C)c(-c4cn5ncnc5c(C)c4C)[nH]c3s2)CC1 [Example 375, 1-(4-(5-(7,8-dimethyl-[1,2,4]triazolo[1,5-a]pyridin-6-yl)-6-isopropyl-4H-pyrrolo[3,2-d]thiazole-2-carbonyl)piperazin-1-yl)ethan-1-one]
6.02 | 4.32 | 19500 | Cc1c(-c2[nH]c3sc(C4CCN(CC5CCOCC5)CC4)nc3c2C(C)C)cn2ncnc2c1C [Example 48, 5-(7,8-dimethyl-[1,2,4]triazolo[1,5-a]pyridin-6-yl)-6-isopropyl-2-(1-((tetrahydro-2H-pyran-4-yl)methyl)piperidin-4-yl)-4H-pyrrolo[3,2-d]thiazole]
43.4 | 12.5 | 793 | Cc1cc(-c2[nH]c3sc(C4CCN(CC(=O)N(C)C)CC4)nc3c2C(C)C)cc(C)n1 [Example 24, 2-(4-(5-(2,6-dimethylpyridin-4-yl)-6-isopropyl-4H-pyrrolo[3,2-d]thiazol-2-yl)piperidin-1-yl)-N,N-dimethylacetamide]
3.78 | 9.31 | 18500 | COc1cc(-c2[nH]c3sc(C4CCN(C5COC5)CC4)nc3c2C(C)C)cn2ncnc12 [Example 11, 6-isopropyl-5-(8-methoxy-[1,2,4]triazolo[1,5-a]pyridin-6-yl)-2-(1-(oxetan-3-yl)piperidin-4-yl)-4H-pyrrolo[3,2-d]thiazole]
5.4 | 5.96 | 5370 | Cc1c(-c2[nH]c3sc(C4CCC(N5CCC6(CC5)COC6)CC4)nc3c2C(C)C)cn2ncnc2c1C (single isomer, unassigned) [Example 238, 7-(4-(5-(7,8-dimethyl-[1,2,4]triazolo[1,5-a]pyridin-6-yl)-6-isopropyl-4H-pyrrolo[3,2-d]thiazol-2-yl)cyclohexyl)-2-oxa-7-azaspiro[3.5]nonane]
11.7 | 17 | 1210 | COc1cc(-c2[nH]c3sc(C4CCC(N5CCC6(CCNC6)C5)CC4)nc3c2C(C)C)cn2ncnc12 (single isomer, unassigned) [Example 115, 2-(4-(2,7-diazaspiro[4.4]nonan-2-yl)cyclohexyl)-6-isopropyl-5-(8-methoxy-[1,2,4]triazolo[1,5-a]pyridin-6-yl)-4H-pyrrolo[3,2-d]thiazole]
3.6 | 190 | 15400 | COc1cc(-c2[nH]c3sc(C4CCC(NC5(C#N)CC5)CC4)nc3c2C(C)C)cn2ncnc12 (stereo not drawn) [Example 107, 1-((4-(6-isopropyl-5-(8-methoxy-[1,2,4]triazolo[1,5-a]pyridin-6-yl)-4H-pyrrolo[3,2-d]thiazol-2-yl)cyclohexyl)amino)cyclopropane-1-carbonitrile]
0.36 | 2.73 | 2140 | CCN(C)C1CCC(c2nc3c(C(C)C)c(-c4cc(C)c5ncnn5c4)[nH]c3s2)CC1 (single isomer, unassigned) [Example 132, N-ethyl-4-(6-isopropyl-5-(8-methyl-[1,2,4]triazolo[1,5-a]pyridin-6-yl)-4H-pyrrolo[3,2-d]thiazol-2-yl)-N-methylcyclohexan-1-amine]
